These results are taken from ChEMBL document CHEMBL1201862, “PubChem BioAssay data set” (2004).

Test systems include HCC 2998; HCT-116; SK-MEL-2; M14; Malme-3M; SK-MEL-28; U-251; RXF 393; HCT-15; CCRF-CEM; SR; UO-31; HT-29; NCI-H522; EKVX; SK-MEL-5; IGROV-1; OVCAR-8; NCI-H226; HOP-92.
What all share (test): NCI anticancer screen, dose series, 48 h

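These data come from cells grown in 96-well plates and exposed to compound for 48 hours at five concentrations. GI50 = concentration required for 50% inhibition of growth.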 The source made the active and inactive calls. Cut-off read from the data, not from the text of the source: active = GI50 up to about 1.1 µM and inactive = higher.

In the case of `Cc1cccc(NC(N)=S)c1`, the GI50 in the experiment with HCC 2998, in the experiment with HCT-116, in the experiment with SK-MEL-2, in the experiment on M14, with Malme-3M and with SK-MEL-28 was > 100 µM (inactive) in each case. Further, the GI50 in the experiment with U-251 is > 100 µM (inactive); with RXF 393, > 100 µM (inactive); in the experiment with HCT-15 it was more than 100 µM; in the experiment with CCRF-CEM it was > 100 µM (inactive); in the experiment on SR it was > 100 µM (inactive); in the experiment on UO-31, > 100 µM (inactive). Also, the GI50 with HT-29, with NCI-H522 and in the experiment with EKVX was > 100 µM (inactive) in each case.

Consider `COc1ccc(-c2c3c(nc4[nH]c(=S)[nH]c(=S)c24)CCCC3)cc1OC`, for which the GI50 in the experiment on HCT-116 is 29.4 µM (inactive); in the experiment with M14, 28.6 µM (inactive); in the experiment on Malme-3M it was 29 µM (inactive); in the experiment with SK-MEL-28 it was 24.2 µM (inactive); in the experiment with SK-MEL-5, 16.6 µM (inactive); in the experiment on U-251, 18.4 µM (inactive). Further, the GI50 in the experiment on RXF 393 is 11.9 µM (inactive); in the experiment with HCT-15 it was 30.1 µM; with CCRF-CEM, 28.5 µM (inactive); with SR, 27.9 µM (inactive); in the experiment on UO-31, 14.6 µM (inactive); in the experiment with IGROV-1, 29.9 µM (inactive). Further, the GI50 is 22.1 µM (inactive) in the experiment on HT-29, 23.9 µM (inactive) with OVCAR-8 and 22.4 µM (inactive) in the experiment on EKVX.

Turning to `C[C@H](N)C(=O)N[C@@H]1[C@H]2C(=C(O)C[C@@H](O)[C@@H]2O)C(=O)O[C@@H]1C`, the GI50 in the experiment with HCC 2998, in the experiment on HCT-116, in the experiment with NCI-H226, in the experiment on SK-MEL-2, with Malme-3M and in the experiment with SK-MEL-28 was > 100 µM (inactive) in each case. Besides, the GI50 with SK-MEL-5 is > 100 µM (inactive); in the experiment with U-251 it was > 100 µM (inactive); in the experiment on HOP-92 it was > 100 µM (inactive); with RXF 393 it was > 100 µM (inactive); in the experiment on HCT-15 it was more than 100 µM; with CCRF-CEM it was > 53.8 µM (inactive). Besides, the GI50 in the experiment on UO-31, with IGROV-1, with HT-29, in the experiment on OVCAR-8, in the experiment on NCI-H522 and in the experiment with EKVX was > 100 µM (inactive) throughout.

As for `CCCN(CCC)C1=Nc2ccccc2-n2cnnc2C1`, the GI50 with HCT-116, in the experiment with NCI-H226, in the experiment on SK-MEL-2, in the experiment with M14, with Malme-3M and in the experiment with SK-MEL-28 was > 100 µM (inactive) each time. Besides, the GI50 is > 100 µM (inactive) in the experiment on SK-MEL-5; > 100 µM (inactive) with U-251; > 100 µM (inactive) in the experiment on RXF 393; more than 100 µM in the experiment on HCT-15; > 100 µM (inactive) with CCRF-CEM; > 100 µM (inactive) in the experiment on SR. The GI50 in the experiment with UO-31 was > 100 µM (inactive); in the experiment with IGROV-1, > 100 µM (inactive); in the experiment on HT-29 it was > 100 µM (inactive); in the experiment on OVCAR-8, > 100 µM (inactive); in the experiment on NCI-H522, 37.8 µM (inactive); with EKVX, > 100 µM (inactive).

In the case of `COC1=C(C)C(=O)C2=C(C1=O)[C@@H]1[C@@H]3Cc4c(OC(=O)CO)c(C)c(OC)c(O)c4[C@H](CNC(=O)C(C)=O)N3[C@@H](C#N)[C@H](C2)N1C`, the GI50 is 0.0472 µM (active) in the experiment with HCC 2998; 0.0573 µM (active) with HCT-116; 0.0871 µM (active) with NCI-H226; < 0.0189 µM (active) in the experiment on SK-MEL-2; 0.0562 µM (active) with Malme-3M; 0.0713 µM (active) with SK-MEL-28. The GI50 with SK-MEL-5 is 0.0154 µM (active); in the experiment with U-251, 0.029 µM (active); in the experiment on HOP-92 it was < 0.0119 µM (active); with RXF 393 it was 0.0184 µM (active); in the experiment with HCT-15, less than 0.01 µM; in the experiment with CCRF-CEM it was 0.0271 µM (active). Further, the GI50 in the experiment on UO-31 is 0.0738 µM (active); in the experiment with IGROV-1, 0.0177 µM (active); with HT-29, 0.0182 µM (active); with OVCAR-8, 0.024 µM (active); in the experiment on NCI-H522 it was < 0.01 µM (active); in the experiment on EKVX, < 0.0405 µM (active).

Take `COc1ccc(C2=NN(C(=O)c3ccc(Cl)cc3)C(O)(c3cc(F)c(Cl)cc3Cl)C2)cc1` (stereo unspecified): the GI50 was 43.5 µM (inactive) in the experiment with HCC 2998; 23.4 µM (inactive) in the experiment with HCT-116; > 100 µM (inactive) in the experiment on NCI-H226; 21.7 µM (inactive) in the experiment on SK-MEL-2; 44.8 µM (inactive) with M14; > 100 µM (inactive) with Malme-3M. Besides, the GI50 in the experiment with SK-MEL-28 is > 100 µM (inactive); in the experiment with SK-MEL-5 it was > 100 µM (inactive); with U-251, > 100 µM (inactive); in the experiment with HOP-92, > 100 µM (inactive); in the experiment on RXF 393, > 100 µM (inactive); in the experiment with HCT-15, 28.1 µM. Moreover, the GI50 in the experiment on CCRF-CEM is 50.2 µM (inactive); in the experiment on UO-31, 16.9 µM (inactive); in the experiment with IGROV-1, > 100 µM (inactive); with HT-29, 17.3 µM (inactive); with OVCAR-8, > 100 µM (inactive); with NCI-H522, > 100 µM (inactive). The GI50 with EKVX is 6.04 µM (inactive).

Consider `Cc1ccc(C(=O)N/N=C(\N=N\c2cccc([N+](=O)[O-])c2)c2ccc(N(C)C)cc2)cc1`, for which the GI50 is > 100 µM (inactive) in the experiment with HCC 2998; > 100 µM (inactive) in the experiment on HCT-116; > 100 µM (inactive) in the experiment with NCI-H226; > 100 µM (inactive) in the experiment with SK-MEL-2; 29.2 µM (inactive) with M14; > 100 µM (inactive) with SK-MEL-28. The GI50 was 25.7 µM (inactive) in the experiment with SK-MEL-5; > 100 µM (inactive) in the experiment on U-251; > 100 µM (inactive) in the experiment on HOP-92; 50.7 µM in the experiment on HCT-15; 35 µM (inactive) with CCRF-CEM; 61.2 µM (inactive) in the experiment on UO-31. Besides, the GI50 in the experiment on IGROV-1 was > 100 µM (inactive); with HT-29, 46.5 µM (inactive); in the experiment with OVCAR-8, 97.1 µM (inactive); with NCI-H522 it was 37.2 µM (inactive); with EKVX, 25.2 µM (inactive).

On to `O=C(Nc1c(Cl)cc([N+](=O)[O-])cc1Cl)/C(=N\Nc1cccc(Cl)c1)c1c(O)c2ccccc2oc1=O`, for which the GI50 is > 100 µM (inactive) in the experiment on HCC 2998; 56.1 µM (inactive) with HCT-116; > 100 µM (inactive) in the experiment with SK-MEL-2; > 100 µM (inactive) in the experiment on Malme-3M; > 100 µM (inactive) with SK-MEL-28; > 100 µM (inactive) in the experiment on SK-MEL-5. Moreover, the GI50 was 66.2 µM (inactive) in the experiment on RXF 393; 75.2 µM (inactive) with CCRF-CEM; 78.7 µM (inactive) in the experiment with SR; 23.6 µM (inactive) with UO-31; > 100 µM (inactive) with IGROV-1; > 100 µM (inactive) with HT-29. The GI50 was > 100 µM (inactive) in the experiment with OVCAR-8, 39.9 µM (inactive) in the experiment with NCI-H522 and 26.4 µM (inactive) in the experiment with EKVX.

Consider `CC1=Nc2nc(Cl)cn2C(=O)C1(Cl)Cl`, for which the GI50 with HCC 2998, in the experiment on HCT-116, with NCI-H226, with SK-MEL-2, with M14 and in the experiment with Malme-3M was > 10 µM (inactive) throughout. For the same molecule, the GI50 with SK-MEL-28 is > 10 µM (inactive); in the experiment with SK-MEL-5, > 10 µM (inactive); in the experiment on U-251 it was > 10 µM (inactive); in the experiment on RXF 393, > 10 µM (inactive); in the experiment with HCT-15, more than 10 µM; in the experiment on CCRF-CEM, > 10 µM (inactive). The GI50 with SR, in the experiment on UO-31, in the experiment on IGROV-1, in the experiment with HT-29, in the experiment with OVCAR-8 and in the experiment on NCI-H522 was > 10 µM (inactive) in each case. Besides, the GI50 in the experiment on EKVX was > 10 µM (inactive).

Take `C/C(N)=N/OCc1nc(C)no1`: the GI50 in the experiment with HCC 2998, with HCT-116, with M14, in the experiment with SK-MEL-28, in the experiment on SK-MEL-5 and with U-251 was > 100 µM (inactive) in each case. For the same molecule, the GI50 with RXF 393 is > 100 µM (inactive); in the experiment on HCT-15, more than 100 µM; in the experiment with CCRF-CEM, > 100 µM (inactive); in the experiment on SR it was > 100 µM (inactive); in the experiment with UO-31, > 100 µM (inactive); with HT-29 it was > 100 µM (inactive). Moreover, the GI50 in the experiment with OVCAR-8, in the experiment with NCI-H522 and with EKVX was > 100 µM (inactive) each time.

In the case of `CC1[C@@]2(O[C@@H]3C=C4C5CCC6Cc7nc8c(nc7C[C@@]6(C)C5C[C@H](O)[C@@]4(C)[C@]13O)CC1CCc3c(cc4c5c3C(O)C[C@H]5[C@@H](C)C3(O4)OC(C)(C)CC3O)[C@]1(C)C8)O[C@@](C)(CO)C[C@@H]2O` (stereo partly specified), the GI50 is 1.91 µM (inactive) in the experiment with HCC 2998; 0.558 µM (active) in the experiment with HCT-116; 0.185 µM (active) in the experiment with NCI-H226; 0.436 µM (active) in the experiment with SK-MEL-2; 0.22 µM (active) in the experiment on Malme-3M; 0.303 µM (active) in the experiment on SK-MEL-5. Further, the GI50 in the experiment on U-251 was 0.0759 µM (active); in the experiment with RXF 393, 0.0418 µM (active); in the experiment on HCT-15, 0.914 µM; in the experiment with CCRF-CEM it was 0.164 µM (active); in the experiment with UO-31, 1.39 µM (inactive); in the experiment on IGROV-1, 0.345 µM (active). Further, the GI50 was 0.402 µM (active) in the experiment on HT-29, 3.24 µM (inactive) in the experiment with OVCAR-8, 0.745 µM (active) in the experiment on NCI-H522 and 0.146 µM (active) in the experiment on EKVX.

As to `Nc1ccn(C2OC(CO)C(O)C2O)c(=O)c1` (stereo unspecified), the GI50 in the experiment on HCC 2998 was 63.2 µM (inactive); in the experiment on HCT-116 it was 125 µM (inactive); in the experiment on NCI-H226, > 625 µM (inactive); with Malme-3M it was 114 µM (inactive); with SK-MEL-28 it was > 625 µM (inactive); in the experiment with SK-MEL-5, > 625 µM (inactive). Further, the GI50 with U-251 was > 625 µM (inactive); with HOP-92 it was 279 µM (inactive); with RXF 393, 348 µM (inactive); in the experiment on HCT-15, more than 625 µM; in the experiment with CCRF-CEM it was > 625 µM (inactive); in the experiment on UO-31, 360 µM (inactive). Besides, the GI50 was > 625 µM (inactive) in the experiment on IGROV-1, 270 µM (inactive) with HT-29, 137 µM (inactive) in the experiment on OVCAR-8 and > 625 µM (inactive) with NCI-H522.
